Reference: PMC6278556, “An Accurate and Effective Method for Measuring Osimertinib by UPLC-TOF-MS and Its Pharmacokinetic Study in Rats” (Molecules, 2018)
Read-outs that look alike come from different tables or passages of the source.

Assays:
[1] = stated without source; cited from earlier work
[2] = Stability of osimertinib in rat plasma under various storage conditions; assay type: in vitro ADME
Procedure: The stabilities of this method, which include the freeze–thaw stability, autosampler stability, short-term stability and long-term stability, were evaluated through three QC samples after the sample preparation method. […] In addition, the long-term stability was evaluated through the determination of three QC samples that were kept at −80 °C for 30 days. All samples were considered stable with RSDs < ±15%.

[3] = Pharmacokinetic study in SD rats after oral administration; assay type: in vivo; conditions: n = 7, mean ± SD, non-compartmental
Procedure: The pharmacokinetic study of osimertinib was applied to seven male SD rats using oral administration by gavage and the dosage was 4.5 mg/kg. Osimertinib was diluted and suspended by 0.5% sodium carboxymethylcellulose. No less than 0.3 mL rat plasma was sampled at 0, 1, 2, 3, 4, 5, 6, 7, 8, 10, 12, 24, 36, and 48 h after oral administration through the oculi chorioideae vein under the condition of light ether anesthesia. After 10 min centrifuging of all analytes at 5000× g, the supernatant was collected and frozen at −40 °C until analysis. The use of animals in the presented study was permitted by the Ethics Committee of the Hebei Medical University, and all animal studies were carried out according to the Guidance for the Care and Use of Laboratory Animals of the US National Institute of Health.
Ten microliters of IS solution (500 ng/mL) was prepared in 100 μL rat plasma and vortex-mixed for 20 s. After that step, 500 μL of acetonitrile was added to precipitate the protein. Then, the mixture was vortexed for 1 min and centrifuged at 12,000 rpm for 10 min. The supernatant was transferred into a new Eppendorf tube and evaporated to dryness through nitrogen gas at 45 °C. After 100 μL of acetonitrile was added to reconstitute the residue and vortexed for 1 min, all samples were centrifuged at 12,000× g for 10 min. Finally, 80 μL of the supernatant was collected and injected into UPLC sample vials before use.
Dynamic background subtraction is a novel technique performed using the Analyst software (AB Sciex, Foster City, CA, USA). In addition, the data of the pharmacokinetic study of osimertinib were collected and calculated by the DAS 2.1.1 software in the non-compartmental mode (Mathematical Pharmacology Professional Committee of China, Shanghai, China).

[4] = Sprague-Dawley (SD), rat, plasma, male SD rats, oral 4.5 mg/kg

Stability in words ([2]; plasma samples, storage temperature (−80 °C) for at least 30 days): stable | Stability in words ([2]; rat plasma, autosampler temperature (4 °C) for 24 h): good stability | Stability in words ([2]; rat plasma, room temperature (25 °C) for 24 h): good stability | Stability in words ([2]; rat plasma, three freeze (−80 °C) and thaw (0 °C) cycles): remained stable | AUC(0-inf) [3, 4]: 426 ± 81.7 ng·h/mL | AUC(0-t) [3, 4]: 382 ± 69 ng·h/mL | Cmax [3, 4]: 28.5 ± 3.97 ng/mL | MRT [3, 4]: 14.5 ± 1.91 h | Vd/F ([3]; Sprague-Dawley (SD), rat, plasma, male SD rats, oral 4.5 mg/kg, read-out: Vz/F (distribution volume)): 234 ± 66.7 L/kg | half-life ([3]; Sprague-Dawley (SD), rat, plasma, male SD rats, oral 4.5 mg/kg, read-out: t1/2z (terminal half-life) (converted)): 15 ± 3.44 h | CLz/F (clearance) ([3]; male SD rats, oral 4.5 mg/kg): 180.7 ± 32.3 mL/min/kg | tmax ([3]; male SD rats, oral 4.5 mg/kg, 4.5 mg/kg): 4.80 ± 1.10 h | CL/F ([3]; male, Sprague-Dawley (SD), rat, plasma, po, 4.5 mg/kg, read-out: CLz/F (clearance) (converted)): ~181 mL/min/kg | tmax ([3]; male, Sprague-Dawley (SD), rat, plasma, po, 4.5 mg/kg, read-out: tmax): 4.5 h
SMILES: C=CC(=O)Nc1cc(Nc2nccc(-c3cn(C)c4ccccc34)n2)c(OC)cc1N(C)CCN(C)C [Osimertinib, N-(2-{2dimethylaminoethyl-methylamino}-4-methoxy-5-{[4-(1-methylindol-3-yl)pyrimidin-2yl]amino}phenyl)prop-2-enamide]
pKa [1]: 13.64
